Experimental data: article PMC9889419 (Pharmacological Reports, 2022)
Like-named read-outs stand apart in the source and are kept apart here. Marks after values point to notes of the source that are not given here.

How the values were obtained:
rats [1] = experiment: Maximal electroshock seizure (MES) test; assay type: in vivo; details: ip
mice [2] = experiment: 6 Hz test; assay type: in vivo; details: 44 mA, mice
Method: The 6 Hz model test was carried out according to the protocol originally described by Brown et al. [54] and more recently by Barton et al. [55] and Kamiński et al. [47] and is a model of pharmacoresistant epilepsy [56].

mice [3] = experiment: Corneal kindling; assay type: in vivo; details: at 25 mg/kg, […], ip
rats [4] = assay type: in vivo; details: ip
rats [5] = assay type: in vivo; details: ip, at 40 mg/kg
mice [6] = experiment: Rotarod test (neurotoxicity); assay type: in vivo; details: mice;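 further: in vivo neurotoxicity screen run within the NIH Epilepsy Therapy Screening Program (ETSP, formerly Anticonvulsant Screening Program)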
mice [7] = experiment: Subcutaneous pentylenetetrazole seizure test (ScPTZ, SCMET); assay type: in vivo; details: mice, ip, […]
Method: (§3) The assays were carried out within the Epilepsy Therapy Screening Program (ETSP, previously known as the Anticonvulsant Screening Program, ASP), Epilepsy Branch, National Institute of Neurological and Communicative Disorders and Stroke, National Institutes of Health in Rockville, MD, USA [23].

mice [8] = experiment: Formalin test (first screening); assay type: in vivo; details: 30.0 mg/kg, ip
Method: Formalin test. The first screening in doses 15 and 30 mg/kg was performed at the Jagiellonian University-Medical College. […] After 30 min, animals were injected with 20 μL of a 0.5% formalin solution into the plantar surface of the hind paw. The total time spent by animal licking or biting the injected paw was assessed for the following 40 min.

mice [9] = experiment: Formalin test (ETSP, area under the curve); assay type: in vivo; details: 20.0 mg/kg, ip
rats [10] = experiment: Sciatic nerve ligation (SNL) model, von Frey test; assay type: in vivo; details: ip
mice [11] = experiment: Tail immersion test (local anesthetic activity); assay type: in vivo
Method: The tail immersion test in mice. […] The method was performed by subcutaneous (sc) injection of the tested substance dissolved in saline, at a concentration range 0.06–2%, in a constant volume of 0.2 mL about 1 cm from the root of the mouse tail. Fifteen minutes later, the 3-cm distal part of the tail was immersed into temperature-controlled water (50 ± 0.5 °C). The reaction time (latency until the tail is pulled away) was measured by the means of a chronometer. In this assay the cut-off was 20 s [29].

guinea pigs [12] = experiment: Corneal anesthesia; assay type: in vivo
Method: A. Corneal anesthesia. […] The corneal reflex was examined by irritation of right eye conjunctiva (studied eye) and a left eye conjunctiva (control eye) by horsehair. The strength of local anesthetic activity was determined from the moment of solution instillation to the moment of reflex return. The presence or lack of corneal reflex were assessed. The eye conjunctiva irritation was done 6 times (every 5 s) with the interval of 5 min during the first 30 min [31].

guinea pigs [13] = experiment: Infiltration anesthesia (intradermal wheal test); assay type: in vivo
Method: A painful reaction to a prick of the skin at the centre of the wheal three times and every 5 s with 5 min intervals during the first 30 min of observation was tested. The experiment was continued to achieve a return of a reaction to the prick. The control wheal was done by an intradermal injection of 0.1 mL of 0.9% NaCl [25]. Local anesthesia was determined by calculating the ratio of the number of positive responses (no flinch) to the number of negative responses (flinch).

murine astrocytes [14] = experiment: MTT assay; assay type: cell-based
Method: Cells were seeded at a density of 1 × 10^4 cells per well in 96 well plates. […] Next, Crystal Dissolving Solution (Cayman) was added to each well.

murine astrocytes [15] = experiment: Crystal violet (CV) assay; assay type: cell-based
Method: CV assay. Cells were seeded at a density of 1 × 10^4 cells per well in 96-well plates.

[16] = test system: organotypic hippocampal slice cultures; experiment: Neuroprotection primary screen, excitotoxin NMDA; assay type: cell-based; details: NMDA 10 µM; 10 and 100 µM compound
Excerpt: Gompound 1 : ADD Number: ItSot+ Batct: lE- Date Started:
Compound 2 : ADD Number: Froso Batct: le Date Completed i l|26-M ar -20 1 O […]
Excitotoxin: lNmoa lnsult Duration: la Uouo Solvent:
Primary Screen Results: ffi […]
Al lruuoa rolrr,| A2lr'rrr,tOa r Olrrr,t * --.- A3 lr'rnroa r oprvr + lsaoot+ t oplrl+aesogo iopM
BZ lr.rrr,ron ropr,t , -_-_-- 83 lluoa topt',r * jffi 1 4 t oopM.€sroso 1 oolrM la+eota tooptu*aasoeo roffi […]
The 'Primary screen Experiment" is a qualitative assessment of the ability of a compound to prevent excrtotoxic cell death. organotypic hippocampal slice cultures are treated *ltn r.i-."iivr-o-"spartate (NMDA) or kainic acad (KA) to induce neuronal cell death' Propidium iodide (Pl), a membrane-imper.eant cornpouna, is included in all wells of the culture plate.
Dying cells have compromised *]lT^"Toj*::, ttr. er rnJy oin "" into the cell, intercatate with DNA and fluoresce. Thus, the intensity of the Pl fluorescence is proportional to the amount of cell death in lhe individual itices. ttippocampat slice cullures are treated with the excitotoxin alone, or *i er. inoi"ui"o above, with the excitotoxin and either one -qf]bar-a Investigalional compounds at the concentrations indicated. lf neuroprotectron occurs as a consequence of the added […]
(§1) been treated with the excitotoxin alone.
(§2) (1 picture or pasted object on this page, not shown here)

[17] = test system: organotypic hippocampal slice cultures; experiment: Neuroprotection primary screen, excitotoxin kainic acid; assay type: cell-based; details: kainic acid 20 µM; 10 and 100 µM compound
Method: Compound 2 : ADD t{umber, b890s0 Batch: lB- Date Compteted. Ect\,t""201 0 […]
Excilotoxin: llGinic ncia Insult Duration: l+ Hours Solvent: […]
Ai lxn zopr.,r aZ lxa zopr,r Ae lre zoprta
Bz lr<n zopn er ]ra zopr',t l:+aot a r ooprt/|*aa9o8o l oopM lgaeota t oot,tr,t*gB9o8o t oopM […]
The "Primary screen Experiment" is a qualitative assessment of the ability of a compound to prevent excitotoxic cell dearh. organotypic hippocampal slice clltures are treated with N-methyl-D-aipartate lNuoa; o; kainic acid (KA) to induce neuronal cell death. Propidium iodide (Pl), a membrane-impermeant compound, is included in all welts of the culture plate.
Dying cells have compromised cell membranes, thus Pl may diffuse into the cell, intercalate with DNA and ftuoresce. Thus, the intensity of the Pl fluorescence is proportional to the amount of cell death in the individual slices. Hippocampal slice cultures are treated with the excitotoxin alone, or where indicated above, with the excitotoxin and either one eltu/o investigational compounds at the concentrations indicated. lf neuroprotection occurs as a consequence of the added […]
as §1, §2

mice [18] = details: mice
rats [19] = experiment: Rotarod / TOX (neurotoxicity); details: rats, ip
Method: as §3
The obtained compounds were screened for antiseizure activity and neurotoxicity in vivo within the Epilepsy Therapy Screening Program (ETSP, previously known as the Anticonvulsant Screening Program, ASP), Epilepsy Branch, National Institute of Neurological and Communicative Disorders and Stroke, National Institutes of Health in Rockville, MD, USA [23].

For `CC[C@H](CO)NCCOc1c(C)cccc1Cl.Cl` [Compound 5a, R-(-)-2-((2-(2-chloro-6-methylphenoxy)ethyl)amino)butan-1-ol hydrochloride], the “MES PI” value (rats [1]) was 10.15, the “MES TPE” value (rats [1]) was 0.25 h and the “MES ED50” value (rats [1]; […]) was 3.9 (2.1–6.2) mg/kg. For the same compound, the “6 Hz ED50” value (mice [2]; TPE 0.5 h, ip) was 52.49 (41.85–67.05) mg/kg, the “6 Hz TPE” value (mice [2]; ip) was 0.5 h and the “6 Hz TPE” value (mice [2]; po) was 0.25 h. For the same compound, the “Corneal kindling seizure score by Racine (0–5)” value (mice [3]) was 4.3, the “Hippocampal kindling TPE” value (rats [4]) was 0.25 h and the “Hippocampal kindling seizure score by Racine (0–5), Rat1” value (rats [4]; at 40 mg/kg) was 4. The “Hippocampal kindling seizure score by Racine (0–5), Rat2” value (rats [4]; at 40 mg/kg) was 0, the “Pilocarpine-induced status epilepticus prevention: result” value (rats [5]) was “no activity” and the “Rotarod TD50” value (mice [6]; ip) was 54.01 (35.70–64.23) mg/kg. The “Rotarod TPE” value (mice [6]; po) was 0.25 h, the “Rotarod TD50” value (mice [6]; po) was 322.33 (257.98–382.69) mg/kg and the “SCMET ED50” value (mice [7]) was > 70.00 mg/kg. For the same compound, the “% of effect (I phase)” value (mice [8]) was 19.4%, the “% of effect (II phase)” value (mice [8]) was 55.7% and the “Time of licking paw ± SEM (I phase)” value (mice [8]) was 72.3 ± 8.7 s. For the same compound, the “Time of licking paw ± SEM (II phase)” value (mice [8]) was 13.5 ± 5.4 s, the “Area under the curve, % of control (I phase)” value (mice [9]) was 76.5; t14 = 0.8847% and the “Area under the curve, % of control (II phase)” value (mice [9]) was 91.5; t14 = 0.5440%. The “SNL TPE” value (rats [10]; rat, in vivo) was 1 h, the “SNL: active at” value (rats [10]; rats, von Frey test) was 4 mg/kg and the “Prolongation of the time reaction” value (mice [11]; 0.031%) was 40.0%. The “Reaction time to painful stimulus” value (mice [11]; 0.031%) was 4.9 ± 0.9 s, the “Prolongation of the time reaction” value (mice [11]; 0.094%) was 57.1% and the “Reaction time to painful stimulus” value (mice [11]; 0.094%) was 5.5 ± 1.6 s. For the same compound, the “Prolongation of the time reaction” value (mice [11]; 0.125%) was 297.1%, the “Reaction time to painful stimulus” value (mice [11]; 0.125%) was 13.9 ± 1.8 s and the “Prolongation of the time reaction” value (mice [11]; 0.5%) was 434.3%. For the same compound, the “Reaction time to painful stimulus” value (mice [11]; 0.5%) was 18.7 ± 1.3 s, the “Prolongation of the time reaction” value (mice [11]; 2.0%) was 391.4% and the “Reaction time to painful stimulus” value (mice [11]; 2.0%) was 17.2 ± 1.9 s. The “Prolongation of the time reaction” value (mice [11]; […]) was 8.6%, the “Reaction time to painful stimulus” value (mice [11]; […]) was 3.8 ± 0.5 s and the “Inhibition of pain reaction” value (guinea pigs [12]; 0.125%, 5 min) was 46.67* %. The “Inhibition of pain reaction” value (guinea pigs [12]; 0.125%, 30 min) was 0%, the “Inhibition of pain reaction” value (guinea pigs [12]; 0.125%, 60 min) was 0% and the “Inhibition of pain reaction” value (guinea pigs [12]; 0.125%, 120 min) was 0%. For the same compound, the “Inhibition of pain reaction” value (guinea pigs [12]; 0.5%, 5 min) was 80.55*** %, the “Inhibition of pain reaction” value (guinea pigs [12]; 0.5%, 30 min) was 0% and the “Inhibition of pain reaction” value (guinea pigs [12]; 0.5%, 60 min) was 0%. The “Inhibition of pain reaction” value (guinea pigs [12]; 0.5%, 120 min) was 0%, the “Inhibition of pain reaction” value (guinea pigs [12]; […], 5 min) was 36.11* % and the “Inhibition of pain reaction” value (guinea pigs [12]; […], 30 min) was 0%. For the same compound, the “Inhibition of pain reaction” value (guinea pigs [12]; […], 60 min) was 0%, the “Inhibition of pain reaction” value (guinea pigs [12]; […], 120 min) was 0% and the “Inhibition of pain reaction” value (guinea pigs [13]; 0.125%, 5 min) was 83.33*** %. The “Inhibition of pain reaction” value (guinea pigs [13]; 0.125%, 30 min) was 44.44** %, the “Inhibition of pain reaction” value (guinea pigs [13]; 0.125%, 24 h) was 0% and the “Inhibition of pain reaction” value (guinea pigs [13]; 0.5%, 5 min) was 100*** %. The “Inhibition of pain reaction” value (guinea pigs [13]; 0.5%, 30 min) was 72.22*** %, the “Inhibition of pain reaction” value (guinea pigs [13]; 0.5%, 60 min) was 58.82** % and the “Inhibition of pain reaction” value (guinea pigs [13]; 0.5%, 120 min) was 52.94** %. For the same compound, the “Inhibition of pain reaction” value (guinea pigs [13]; 0.5%, 24 h) was 0%, the “Inhibition of pain reaction” value (guinea pigs [13]; […], 5 min) was 100*** % and the “Inhibition of pain reaction” value (guinea pigs [13]; […], 60 min) was 33.33* %. For the same compound, the “Inhibition of pain reaction” value (guinea pigs [13]; […], 240 min) was 16.67%, the “Inhibition of pain reaction” value (guinea pigs [13]; […], 24 h) was 0% and the “cytotoxic activity (MTT)” value (murine astrocytes [14]) was “did not exhibit cytotoxic activity”. The “impact on proliferation (crystal violet)” value (murine astrocytes [15]) was “did not exhibit cytotoxic activity and a notable impact on proliferation”, the “Test Result (neuroprotection)” value [16] was “No neuroprotection” and the “Test Result (neuroprotection)” value [17] was “No neuroprotection observed”. For the same compound, the “MES ED50” value (mice [18]; ip) was 19.78 (16.16–22.33) mg/kg, the “MES PI” value (mice [18]; po) was 5.03 and the “MES TPE” value (mice [18]; po) was 0.25 h. For the same compound, the “MES ED50” value (mice [18]; po) was 64.12 (52.15–75.37) mg/kg, the “Rotarod TPE” value (rats [19]) was 0.25 h and the “Rotarod TD50” value (rats [19]; […]) was 39.6 (36.2–78.3) mg/kg.
